Experimental data as given in patent US20100279962A1, “MONOSEBACATE OF PYRAZOLE DERIVATIVE” (KISSEI PHARMACEUTICAL CO., LTD., priority 2007, published 2010).

Tests used:
Male Wistar rats [1] = experiment: Oral glucose tolerance test, combination effect with sulfonylureas; format: in vivo, rat; conditions: for Plasma glucose concentration (mg/dL) Just before administration: fasted rats, baseline before oral dosing; for Plasma glucose concentration (mg/dL) Just before administration / Plasma glucose concentration (mg/dL) 1 hr after administration: mean ± standard error; for Plasma glucose concentration at 1 hr compared with the Control group (in words) / Plasma glucose concentration (mg/dL) 1 hr after administration: oral, monosebacate 0.03 mg/kg as free form, gliclazide 0.3 mg/kg, oral glucose load
Method: (§1) Male Wistar rats (Charles River Japan, Inc.) at 9 weeks of age, fasted about 16 hours (each group has 6 animals), were administrated orally in a volume of 2.5 mL/kg with distilled water and 0.1% methylcellulose solution in the Control group, with the monosebacate (0.03 mg/kg as the above compound (B) (free form)) dissolved in distilled water (hereinafter referred to as the “monosebacate solution”) and 0.1% methylcellulose solution in the Monosebacate alone group, with gliclazide (0.3 mg/kg as gliclazide) dissolved in 0.1% methylcellulose solution (hereinafter referred to as the “gliclazide solution”) and distilled water in the Gliclazide alone group and with the monosebacate solution and the gliclazide solution (0.03 mg/kg as the compound (B) and 0.3 mg/kg as gliclazide) in the Gliclazide combination group, respectively. Subsequently, 0.4 g/mL of glucose solution (5 mL/kg) was loaded orally. The blood was collected from tail vein before and 1 hr after administration of test substance, and the plasma glucose concentrations were measured using Glucose C-II test WAKO (Wako Pure Chemical Industries, Ltd.). The numerical values in the table represent mean value±standard error.

[2] = Storage stability test (purity by HPLC, deliquescence); format: physicochemical; conditions: for Purity (%) Initial / Purity (%) After 2 months: HPLC; for Storage stability (in words): 2 months
Method: The crystals of the monosebacate in Example 1 and amorphous 3-(3-{4-[3-(β-D-glucopyranosyloxy)-5-isopropyl-1H-pyrazol-4-ylmethyl]-3-methylphenoxy} propylamino)-2,2-dimethylpropionamide (free form) as Comparative Example were stored under condition of 40° C./75% relative humidity or 60° C. in open vessels, existence or nonexistence of the deliquescence and the storage stability for 2 months were examined. […] Analytical conditions of HPLC are as follows.
Detector: ultraviolet-visible absorption spectrophotometer
Column: LUNA C18(2) (produced by Phenomenex), 5 μm, 4.6×250 mm, particle diameter 100×10^−10 m
Column Temperature: a constant temperature of around 25° C.
Sample concentration: 1 mg/mL
Mobile phase A: 10 mM dipotassium hydrogenphosphate aqueous solution adjusted to pH 7.8 with phosphoric acid
Mobile phase B: Acetonitrile
0-30 min: Mobile phase A/Mobile phase B=78/22, 30-50 min: Mobile phase A/Mobile phase B=78/22→30/70, 50-60 min: Mobile phase A/Mobile phase B=30/70
Range of area measurement: for 50 minutes from the start, except for the area of the peak of the blank solution

Male Wistar rats [3] = experiment: Oral glucose tolerance test, combination effect with glinides; format: in vivo, rat; conditions: for Plasma glucose concentration (mg/dL) Just before administration: fasted rats, baseline before oral dosing; for Plasma glucose concentration (mg/dL) Just before administration / Plasma glucose concentration (mg/dL) 1 hr after administration: mean ± standard error; for Plasma glucose concentration at 1 hr compared with the Control group (in words) / Plasma glucose concentration (mg/dL) 1 hr after administration: oral, monosebacate 0.03 mg/kg as free form, mitiglinide calcium hydrate 0.3 mg/kg, oral glucose load
Method: as §1
Instead of gliclazide in the Gliclazide alone group and the Gliclazide combination group, mitiglinide calcium hydrate (JAN) (0.3 mg/kg as mitiglinide calcium hydrate) was used (hereinafter referred to as the “Mitiglinide alone group” and the “Mitiglinide combination group”, respectively), and the plasma glucose concentrations were measured in the same way as the above method (1). The numerical values in the table represent mean value±standard error.

[4] = 40° C./75% relative humidity storage test
[5] = 60° C. in open vessels storage test
[6] = stored at 40° C./75% relative humidity for 2 months
[7] = stored at 60° C. in open vessels for 2 months

Row | Molecule | Plasma glucose concentration (mg/dL) Just before administration (Male Wistar rats [1]) [mg/dL] | Plasma glucose concentration at 1 hr compared with the Control group (in words) (Male Wistar rats [1]) | Plasma glucose concentration (mg/dL) 1 hr after administration (Male Wistar rats [1]) [mg/dL] | Deliquescence ([2]; 40° C./75% relative humidity) | Purity (%) Initial [2, 4] [%] | Storage stability (in words) ([2]; 40° C./75% relative humidity) | Purity (%) Initial [2, 5] [%] | Storage stability (in words) ([2]; 60° C. in open vessels) | Purity (%) After 2 months [2, 6] [%] | Purity (%) After 2 months [2, 7] [%] | Plasma glucose concentration (mg/dL) Just before administration (Male Wistar rats [3]) [mg/dL] | Plasma glucose concentration at 1 hr compared with the Control group (in words) (Male Wistar rats [3]) | Plasma glucose concentration (mg/dL) 1 hr after administration (Male Wistar rats [3]) [mg/dL] | Deliquescence ([2]; 40° C./75% relative humidity, listed as free form)
1 | Cc1ccc(S(=O)(=O)NC(=O)NN2CC3CCCC3C2)cc1 (stereo not drawn) [Gliclazide, gliclazide] | 80.7 ± 6.7 | lower plasma glucose concentrations | 136.5 ± 6.7 |  |  |  |  |  |  |  |  |  |  | 
2 | Bis[3-(3-{4-[3-(β-D-glucopyranosyloxy)-5-isopropyl-1H-pyrazol-4-ylmethyl]-3-methylphenoxy}propylamino)-2,2-dimethylpropionamide] monosebacate [Example 1] | 81.6 ± 3.1 | lower plasma glucose concentrations | 127.6 ± 3.8 | Nil | 99.6 | excellent storage stability | 99.6 | almost no decrease in the purity | 99.5 | 99.2 | 83.8 ± 1.8 | lower plasma glucose concentrations | 141.3 ± 5.6 | 
3 | O=C(O)[C@H](CC(=O)N1C[C@H]2CCCC[C@H]2C1)Cc1ccccc1 [Mitiglinide, mitiglinide calcium hydrate] |  |  |  |  |  |  |  |  |  |  | 85.8 ± 1.7 | lower plasma glucose concentrations | 119.1 ± 5.8 | 
4 | Cc1cc(OCCCNCC(C)(C)C(N)=O)ccc1Cc1c(O[C@@H]2O[C@H](CO)[C@@H](O)[C@H](O)[C@H]2O)n[nH]c1C(C)C [Comparative Example, 3-(3-{4-[3-(β-D-glucopyranosyloxy)-5-isopropyl-1H-pyrazol-4-ylmethyl]-3-methylphenoxy}propylamino)-2,2-dimethylpropionamide] |  |  |  | Yes | 98.7 | decrease in the purity | 98.7 | remarkable decrease in the purity due to the decomposition | 97.0 | 95.3 |  |  |  | deliquescence from the initial of the experiment
